Where “and” joins values, the source holds several entries; their conditions need not be identical. Equal values may be shown once. Inconclusive results and toxic doses are left out.
System: L1210 leukemia ip in BDF1 mice, survival T/C
Assay: NCI In Vivo Anticancer Drug Screen. Data for tumor model L1210 Leukemia (intraperitoneal) in B6D2F1 (BDF1) mice
Details: higher = longer survival
How it was run: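 Each compound was tested against a transplantable tumor grown in mice. The endpoint was survival, with treated animals benchmarked against vehicle controls as a simple ratio.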

[1] = endpoint: mean survival time, dose: 25.0 mg/kg/injection, schedule: Q01DX009 (ip), vehicle: Klucel (hydroxypropylcellulose) (HPC)
[2] = endpoint: mean survival time, dose: 50.0 mg/kg/injection, schedule: Q01DX009 (ip), vehicle: Klucel (hydroxypropylcellulose) (HPC)

## N[C@H](C(=O)O)[C@H]1ON=C(Cl)[C@@H]1O
endpoint: mean survival time, dose: 0.78 mg/kg/injection, schedule: Q01DX009 (ip), vehicle: saline
  T/C: 108 % of control
endpoint: mean survival time, dose: 5.5 mg/kg/injection, schedule: Q01DX009 (ip), vehicle: Klucel (hydroxypropylcellulose) (HPC)
  T/C: 108 % of control
[1]
  T/C: 118 % of control
[2]
  T/C: 150 % of control
endpoint: mean survival time, dose: 66.0 mg/kg/injection, schedule: Q01DX009 (ip), vehicle: Klucel (hydroxypropylcellulose) (HPC)
  T/C: 151 % of control
endpoint: mean survival time, dose: 100.0 mg/kg/injection, schedule: Q01DX009 (ip), vehicle: Klucel (hydroxypropylcellulose) (HPC)
  T/C: 154 % of control and 158 % of control
endpoint: mean survival time, dose: 150.0 mg/kg/injection, schedule: Q01DX009 (ip), vehicle: Klucel (hydroxypropylcellulose) (HPC)
  T/C: 104 % of control
endpoint: median survival time, dose: 4.0 mg/kg/injection, schedule: Q03HX008 (ip), vehicle: saline
  T/C: 123 % of control
endpoint: median survival time, dose: 4.0 mg/kg/injection, schedule: Q03HX024 (ip), vehicle: saline
  T/C: 154 % of control
endpoint: median survival time, dose: 6.25 mg/kg/injection, schedule: Q03HX016 (ip), vehicle: saline
  T/C: 154 % of control
endpoint: median survival time, dose: 6.25 mg/kg/injection, schedule: Q03HX024 (ip), vehicle: saline
  T/C: 189 % of control
endpoint: median survival time, dose: 8.0 mg/kg/injection, schedule: Q01DX009 (sc), vehicle: saline
  T/C: 118 % of control
endpoint: median survival time, dose: 8.0 mg/kg/injection, schedule: Q03HX016 (ip), vehicle: saline
  T/C: 153 % of control
endpoint: median survival time, dose: 12.5 mg/kg/injection, schedule: Q03HX016 (ip), vehicle: saline
  T/C: 152 % of control
endpoint: median survival time, dose: 12.5 mg/kg/injection, schedule: Q03HX024 (ip), vehicle: saline
  T/C: 170 % of control
endpoint: median survival time, dose: 16.0 mg/kg/injection, schedule: Q03HX016 (ip), vehicle: saline
  T/C: 150 % of control
endpoint: median survival time, dose: 25.0 mg/kg/injection, schedule: Q01DX001 (ip), vehicle: saline
  T/C: 113 % of control
endpoint: median survival time, dose: 25.0 mg/kg/injection, schedule: Q01DX009 (ip), vehicle: saline
  T/C: 171 % of control
endpoint: median survival time, dose: 25.0 mg/kg/injection, schedule: Q03HX016 (ip), vehicle: saline
  T/C: 160 % of control
endpoint: median survival time, dose: 25.0 mg/kg/injection, schedule: Q08DX002 (ip), vehicle: saline
  T/C: 104 % of control
endpoint: median survival time, dose: 32.0 mg/kg/injection, schedule: Q01DX001 (ip), vehicle: saline
  T/C: 105 % of control
endpoint: median survival time, dose: 32.0 mg/kg/injection, schedule: Q01DX001 (sc), vehicle: saline
  T/C: 105 % of control
endpoint: median survival time, dose: 32.0 mg/kg/injection, schedule: Q03HX016 (ip), vehicle: saline
  T/C: 150 % of control
endpoint: median survival time, dose: 32.0 mg/kg/injection, schedule: Q03HX024 (ip), vehicle: saline
  T/C: 153 % of control
endpoint: median survival time, dose: 32.0 mg/kg/injection, schedule: Q04DX003 (ip), vehicle: saline
  T/C: 122 % of control
endpoint: median survival time, dose: 32.0 mg/kg/injection, schedule: Q08DX002 (ip), vehicle: saline
  T/C: 111 % of control
endpoint: median survival time, dose: 50.0 mg/kg/injection, schedule: Q01DX001 (ip), vehicle: saline
  T/C: 113 % of control
endpoint: median survival time, dose: 50.0 mg/kg/injection, schedule: Q03HX016 (ip), vehicle: saline
  T/C: 158 % of control
endpoint: median survival time, dose: 50.0 mg/kg/injection, schedule: Q08DX002 (ip), vehicle: saline
  T/C: 108 % of control
endpoint: median survival time, dose: 64.0 mg/kg/injection, schedule: Q01DX001 (ip), vehicle: saline
  T/C: 100 % of control
endpoint: median survival time, dose: 64.0 mg/kg/injection, schedule: Q01DX001 (sc), vehicle: saline
  T/C: 106 % of control
endpoint: median survival time, dose: 64.0 mg/kg/injection, schedule: Q01DX009 (oral), vehicle: saline
  T/C: 115 % of control
endpoint: median survival time, dose: 64.0 mg/kg/injection, schedule: Q01DX009 (sc), vehicle: saline
  T/C: 151 % of control
endpoint: median survival time, dose: 64.0 mg/kg/injection, schedule: Q03HX024 (ip), vehicle: saline
  T/C: 153 % of control
endpoint: median survival time, dose: 64.0 mg/kg/injection, schedule: Q04DX003 (ip), vehicle: saline
  T/C: 122 % of control
endpoint: median survival time, dose: 64.0 mg/kg/injection, schedule: Q08DX002 (ip), vehicle: saline
  T/C: 113 % of control
endpoint: median survival time, dose: 100.0 mg/kg/injection, schedule: Q01DX001 (ip), vehicle: saline
  T/C: 104 % of control
endpoint: median survival time, dose: 100.0 mg/kg/injection, schedule: Q01DX009 (ip), vehicle: saline
  T/C: 169 % of control
endpoint: median survival time, dose: 100.0 mg/kg/injection, schedule: Q03HX016 (ip), vehicle: saline
  T/C: 152 % of control
endpoint: median survival time, dose: 100.0 mg/kg/injection, schedule: Q03HX024 (ip), vehicle: saline
  T/C: 202 % of control
endpoint: median survival time, dose: 100.0 mg/kg/injection, schedule: Q04DX003 (ip), vehicle: saline
  T/C: 122 % of control
endpoint: median survival time, dose: 100.0 mg/kg/injection, schedule: Q08DX002 (ip), vehicle: saline
  T/C: 114 % of control
endpoint: median survival time, dose: 128.0 mg/kg/injection, schedule: Q01DX001 (ip), vehicle: saline
  T/C: 108 % of control
endpoint: median survival time, dose: 128.0 mg/kg/injection, schedule: Q01DX001 (sc), vehicle: saline
  T/C: 104 % of control
endpoint: median survival time, dose: 128.0 mg/kg/injection, schedule: Q01DX009 (ip), vehicle: saline
  T/C: 151 % of control
endpoint: median survival time, dose: 128.0 mg/kg/injection, schedule: Q01DX009 (sc), vehicle: saline
  T/C: 163 % of control
endpoint: median survival time, dose: 128.0 mg/kg/injection, schedule: Q03HX024 (ip), vehicle: saline
  T/C: 152 % of control
endpoint: median survival time, dose: 128.0 mg/kg/injection, schedule: Q04DX003 (ip), vehicle: saline
  T/C: 108 % of control
endpoint: median survival time, dose: 128.0 mg/kg/injection, schedule: Q08DX002 (ip), vehicle: saline
  T/C: 102 % of control
endpoint: median survival time, dose: 200.0 mg/kg/injection, schedule: Q01DX001 (ip), vehicle: saline
  T/C: 108 % of control
endpoint: median survival time, dose: 200.0 mg/kg/injection, schedule: Q01DX009 (ip), vehicle: saline
  T/C: 104 % of control
endpoint: median survival time, dose: 200.0 mg/kg/injection, schedule: Q08DX002 (ip), vehicle: saline
  T/C: 104 % of control
endpoint: median survival time, dose: 256.0 mg/kg/injection, schedule: Q01DX001 (ip), vehicle: saline
  T/C: 104 % of control
endpoint: median survival time, dose: 256.0 mg/kg/injection, schedule: Q01DX001 (oral), vehicle: saline
  T/C: 108 % of control and 109 % of control
endpoint: median survival time, dose: 256.0 mg/kg/injection, schedule: Q01DX001 (sc), vehicle: saline
  T/C: 104 % of control
endpoint: median survival time, dose: 256.0 mg/kg/injection, schedule: Q01DX009 (ip), vehicle: saline
  T/C: 153 % of control
endpoint: median survival time, dose: 256.0 mg/kg/injection, schedule: Q01DX009 (oral), vehicle: saline
  T/C: 115 % of control and 90 % of control
endpoint: median survival time, dose: 256.0 mg/kg/injection, schedule: Q08DX002 (ip), vehicle: saline
  T/C: 99 % of control
endpoint: median survival time, dose: 400.0 mg/kg/injection, schedule: Q01DX001 (ip), vehicle: saline
  T/C: 117 % of control
endpoint: median survival time, dose: 400.0 mg/kg/injection, schedule: Q08DX002 (ip), vehicle: saline
  T/C: 122 % of control
endpoint: median survival time, dose: 512.0 mg/kg/injection, schedule: Q01DX001 (ip), vehicle: saline
  T/C: 105 % of control
endpoint: median survival time, dose: 512.0 mg/kg/injection, schedule: Q01DX001 (oral), vehicle: saline
  T/C: 115 % of control and 118 % of control
endpoint: median survival time, dose: 512.0 mg/kg/injection, schedule: Q01DX001 (sc), vehicle: saline
  T/C: 107 % of control
endpoint: median survival time, dose: 512.0 mg/kg/injection, schedule: Q01DX009 (oral), vehicle: saline
  T/C: 87 % of control
endpoint: median survival time, dose: 512.0 mg/kg/injection, schedule: Q08DX002 (ip), vehicle: saline
  T/C: 102 % of control
endpoint: median survival time, dose: 1024.0 mg/kg/injection, schedule: Q01DX001 (ip), vehicle: saline
  T/C: 114 % of control
endpoint: median survival time, dose: 1024.0 mg/kg/injection, schedule: Q01DX001 (oral), vehicle: saline
  T/C: 114 % of control
endpoint: median survival time, dose: 1024.0 mg/kg/injection, schedule: Q01DX001 (sc), vehicle: saline
  T/C: 109 % of control
endpoint: median survival time, dose: 1024.0 mg/kg/injection, schedule: Q08DX002 (ip), vehicle: saline
  T/C: 118 % of control

## CCOc1ccc(/C=C/[N+](=O)[O-])cc1
endpoint: mean survival time, dose: 12.5 mg/kg/injection, schedule: Q01DX009 (ip), vehicle: Klucel (hydroxypropylcellulose) (HPC)
  T/C: 96 % of control
endpoint: mean survival time, dose: 12.5 mg/kg/injection, schedule: Q04DX003 (ip), vehicle: Klucel (hydroxypropylcellulose) (HPC)
  T/C: 95 % of control
[1]
  T/C: 97 % of control
endpoint: mean survival time, dose: 25.0 mg/kg/injection, schedule: Q04DX003 (ip), vehicle: Klucel (hydroxypropylcellulose) (HPC)
  T/C: 114 % of control
[2]
  T/C: 105 % of control
endpoint: mean survival time, dose: 50.0 mg/kg/injection, schedule: Q04DX003 (ip), vehicle: Klucel (hydroxypropylcellulose) (HPC)
  T/C: 101 % of control
endpoint: mean survival time, dose: 100.0 mg/kg/injection, schedule: Q04DX003 (ip), vehicle: Klucel (hydroxypropylcellulose) (HPC)
  T/C: 94 % of control
endpoint: mean survival time, dose: 200.0 mg/kg/injection, schedule: Q04DX003 (ip), vehicle: Klucel (hydroxypropylcellulose) (HPC)
  T/C: 95 % of control

## CCCCC(CC)C1NCCO1 (configuration not stated)
endpoint: mean survival time, dose: 50.0 mg/kg/injection, schedule: Q01DX009 (ip), vehicle: saline with Tween-80
  T/C: 87 % of control
endpoint: mean survival time, dose: 100.0 mg/kg/injection, schedule: Q01DX009 (ip), vehicle: saline with Tween-80
  T/C: 100 % of control
endpoint: mean survival time, dose: 100.0 mg/kg/injection, schedule: Q04DX003 (ip), vehicle: saline with Tween-80
  T/C: 105 % of control
endpoint: mean survival time, dose: 200.0 mg/kg/injection, schedule: Q01DX009 (ip), vehicle: saline with Tween-80
  T/C: 93 % of control
endpoint: mean survival time, dose: 200.0 mg/kg/injection, schedule: Q04DX003 (ip), vehicle: saline with Tween-80
  T/C: 86 % of control
